Data on 25 molecules can be found in patent publication US20220251095A1, “TRICYCLIC COMPOUND, PREPARATION METHOD THEREFOR AND USE THEREOF” (SHANGHAI JEMINCARE PHARMACEUTICALS CO., LTD., priority 2019, published 2022).

Data set [1] concerns the target T1, coagulation factor XIa protease (FXIa) (Homo sapiens, UniProt P03951).
T1 construct: purchased Abcam ab62411
Nature of the data set: Inhibition of coagulation factor XIa (FXIa), chromogenic substrate, absorbance at 405. It is filed as biochemical. Conditions: FXIa 0.05 μg/mL, substrate 2.5 mM, 37° C. 15 minutes. The procedure: Coagulation factor XIa protease (FXIa) decomposed the specific substrate to produce yellow p-nitroaniline (pNA), pNA had strong absorption at 405 nm. The inhibitory activity of the compounds on coagulation factor XIa was determined by assaying the absorbance of the compounds at […].
The coagulation factor XIa protease used in the experiment was purchased from Abcam Company, Item No. ab62411; the coagulation factor XIa-specific substrate was purchased from HYPHEN BioMed, Item No. Biophen cs-21 (66); tris-HCl was purchased from Invitrogen, Item No. 15567-027; NaCl was purchased from ABCONE, Item No. S39168; Twain 20 was purchased from Amersco, Item No. 0777-1L.
(§1) The compounds were dissolved in 100% DMSO, 20 mM, and stored at room temperature in a nitrogen cabinet.
a. 20 mM of the tested compound was diluted to 2 mM using 100% DMSO, and the reference compound was diluted to 0.4 mM; the compound was continuously diluted with a 3-fold gradient at 10 concentration points using a Bravo liquid workstation.
b. The ECHO liquid workstation was used to transfer 10 nL of compound to the corresponding 384-well experimental plate with double replicate wells; the final concentrations of compound reactions were 1000, 333.3, 111.1, 37.0, 12.3, 4.1, 1.37, 0.46, 0.15, and 0.05 nM. The final concentrations of reference compounds were 200, 66.7, 22.2, 7.4, 2.47, 0.82, 0.27, 0.09, 0.03, 0.01 nM.
c. 10 nL DMSO and 10 nL 0.4 mM reference compounds were transferred to high signal control pores and low signal control pores respectively.
d. 0.1 μg/mL FXIa enzyme solution was prepared with buffer solution, and 10 μL enzyme solution was added to 384-well experimental plate, 5 mM substrate solution was prepared using buffer solution, and […] substrate solution was added to a 384-well experimental plate. The final concentration of FXIa was 0.05 μg/mL and the final concentration of the substrate was 2.5 mM.
e. The 384-hole experimental plate was centrifuged and incubated at 37° C. for 15 minutes.
f. The absorbance was measured at 405 nm using EnVision.

Data set [2] has as its system human plasma. Put plainly: Anticoagulant effect on human blood in vitro (APTT clotting time, CT2.0). Conditions: final concentration of compound corresponding to aPTT of the 2-fold blank control. The procedure: Activated partial thromboplastin time (APTT) measurement reagent was mixed with plasma and the reaction was carried out continuously resulting in a change in optical density up to the clotting point, and the clotting time (CT) was measured by optical turbidimetry using a semi-automatic coagulation analyzer. The in vitro anticoagulant activity of compounds on human blood was determined by detecting the clotting time of plasma treated with different concentrations of compounds, and the corresponding concentration of compounds prolonging clotting time was calculated.
Human plasma used in the experiment was purchased from HD Biosciences (Shanghai) Co., Ltd.; Activated partial thromboplastin time determination kit was purchased from Taizhou Zhongqin Shidi Biotechnology Co., Ltd., Item No. SS00220005.
as §1
a. The NaCl reagent in the kit was incubated half an hour in advance, and the APTT reagent was balanced to room temperature.
b. The compound was continuously diluted at 14 concentration points using a Bravo liquid workstation with a 2-fold gradient.
c. 0.75 μL of the compound was added to the measuring cup, double-replicate wells; 50 μL of plasma was added and 50 μL of APTT reagent was added, the mixture was mixed well and put into coagulation analyzer for incubation at 37° C. for 3 minutes.
d. APTT assay was started, 50 μL of NaCl was added to start the reaction, and the clotting time was counted.
e. Control clotting time was measured using 100% DMSO instead of the compound, and the final concentration of DMSO was 0.5%.
Data were curve-fitted using Graphpad Prism to calculate CT2.0, the final concentration of compound corresponding to aPTT of the 2-fold blank control was calculated.

A short description of data set [3]: Pharmacokinetic experiment in rats, intravenous injection and oral administration. It is filed as in vivo. Conditions: male Sprague Dawley rats; for F: intragastric administration 2 mg/kg vs intravenous 1 mg/kg; for AUC(0-inf) / Cmax / half-life / clearance / Vd: rat, plasma; for Vd: read-out: Vz. The protocol: In this experimental embodiment, in vivo pharmacokinetic evaluation was performed in rats by intravenous injection and oral administration.
Experimental methods and conditions: Male Sprague Dawley rats were given the test compound 1 mg/Kg (intravenous injection, solvent 5% DMSO/10% Solutol/85% Saline) and 2 mg/Kg (intragastric administration, solvent 0.5% MC) by respectively; 5 min, 15 min, 30 min, 1 hr, 2 hr, 4 hr, 6 hr, 8 hr, 24 hr after administration, blood was collected from submandibular vein, 0.20 mL was collected from each sample , and heparin sodium was used for anticoagulation. After collection, the sample was placed on ice, and the plasma was centrifuged to be measured within 1 hour. Plasma drug concentration in plasma was detected by liquid chromatography tandem mass spectrometry (LC/MS/MS) to calculate pharmacokinetic parameters.

Setting [4] is: po, intragastric administration 2 mg/kg.
Setting [5] is: intravenous administration 1 mg/kg.

T1 sequence (P03951 388-625 limits assumed): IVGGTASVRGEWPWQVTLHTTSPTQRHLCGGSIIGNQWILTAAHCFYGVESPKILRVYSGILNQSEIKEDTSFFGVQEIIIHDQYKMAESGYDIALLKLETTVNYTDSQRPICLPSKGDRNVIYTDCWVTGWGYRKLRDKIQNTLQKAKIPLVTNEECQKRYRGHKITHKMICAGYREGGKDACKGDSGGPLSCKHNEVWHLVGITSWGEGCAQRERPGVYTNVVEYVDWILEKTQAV
T1 sequence (P03951 19-387 partner limits assumed): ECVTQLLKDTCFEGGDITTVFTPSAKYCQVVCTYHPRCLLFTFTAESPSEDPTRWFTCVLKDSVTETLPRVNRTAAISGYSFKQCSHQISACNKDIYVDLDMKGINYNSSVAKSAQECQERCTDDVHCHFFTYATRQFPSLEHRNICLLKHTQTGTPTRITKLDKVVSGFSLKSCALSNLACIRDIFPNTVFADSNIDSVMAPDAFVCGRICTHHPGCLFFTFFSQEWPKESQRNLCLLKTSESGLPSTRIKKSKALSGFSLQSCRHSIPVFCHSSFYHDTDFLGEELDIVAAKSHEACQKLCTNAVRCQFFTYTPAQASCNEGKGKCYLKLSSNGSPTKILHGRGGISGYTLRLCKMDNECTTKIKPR

As to `Nc1ccc(-c2nc(F)c([C@@H]3[C@H]4C[C@H]4c4cc(-c5cc(Cl)ccc5-n5cnnn5)cc(=O)n43)[nH]2)c(F)n1` [Embodiment 36], the IC50 (commonly the concentration that inhibits the measured activity by half) in data set [1] stood at 3.34 nM. The CT2.0 in data set [2] was determined as 0.42 µM. Moreover, the F in data set [3] was found to be 25.32%. In data set [3] (setting [4]), the AUC(0-inf) (usually the area under the concentration-time curve extrapolated to infinity) amounted to 3310 ng·h/mL; the peak concentration (Cmax) (in general, the peak of the concentration-time curve) is 709 ng/mL; the half-life – broadly, how long it takes for the measured level to halve – was 1.63 h. In data set [3] (setting [5]), the area under the curve AUC(0-inf) came to 6530 ng·h/mL, the clearance amounted to 2.66 mL/min/kg, the half-life is 1.65 h and the Vd turned out to be 0.349 L/kg.
On to `Nc1ccc(-c2[nH]c([C@@H]3[C@H]4C[C@H]4c4cc(-c5cc(Cl)ccc5-n5cnnn5)cc(=O)n43)nc2F)cc1C(F)(F)F` [Embodiment 50], for which the IC50 in data set [1] stood at 7.02 nM. The same molecule showed a CT2.0 in data set [2] of 3.16 µM.
With `O=c1cnc2cc(-c3cnc([C@@H]4[C@H]5C[C@H]5c5cc(-c6cc(Cl)ccc6-n6cnnn6)cc(=O)n54)[nH]3)ccc2[nH]1` [Embodiment 55], 5.18 nM corresponded to half-maximal inhibition in data set [1] (IC50). Besides, the CT2.0 in data set [2] is 0.67 µM.
Consider `O=C1Nc2ccc(-c3cnc([C@@H]4[C@H]5C[C@H]5c5cc(-c6cc(Cl)ccc6-n6cnnn6)cc(=O)n54)[nH]3)cc2CO1` [Embodiment 57], for which the midpoint of inhibition in data set [1], the IC50, lay at 8.32 nM. This molecule also came in with a CT2.0 in data set [2] of 0.54 µM.
`O=c1[nH]c2ccc(-c3[nH]c([C@@H]4[C@H]5C[C@H]5c5cc(-c6cc(Cl)ccc6-n6cnnn6)cc(=O)n54)nc3F)cc2cc1C(F)(F)F` [Embodiment 58] registered an IC50 in data set [1] of 3.25 nM. The CT2.0 in data set [2] came out at 1.21 µM.
In turn, `CC1Cc2cc(-c3[nH]c([C@@H]4[C@H]5C[C@H]5c5cc(-c6cc(Cl)ccc6-n6cnnn6)cc(=O)n54)nc3F)ccc2NC1=O` (stereo partly drawn) [Embodiment 59] yielded an IC50 in data set [1] of 1.41 nM. For the same molecule, the CT2.0 in data set [2] is 0.84 µM.
For `O=C1COc2cc(-c3[nH]c([C@@H]4[C@H]5C[C@H]5c5cc(-c6cc(Cl)ccc6-n6cc(Cl)nn6)cc(=O)n54)nc3F)ccc2N1` [Embodiment 62] the same measures were 6.76 nM and 2.32 µM.
The like results for `O=C1Nc2ccc(-c3[nH]c([C@@H]4[C@H]5C[C@H]5c5cc(-c6cc(Cl)ccc6-n6cc(Cl)nn6)cc(=O)n54)nc3F)cc2CO1` [Embodiment 64] were, in that order, 4.78 nM and 1.11 µM.
Turning to `Nc1noc2c(F)c(-c3cnc([C@@H]4[C@H]5C[C@H]5c5cc(-c6cc(Cl)ccc6-n6cc(Cl)nn6)cc(=O)n54)[nH]3)ccc12` [Embodiment 68], the IC50 in data set [1] worked out at 3.54 nM. Further, the CT2.0 in data set [2] was determined as 0.65 µM.
The like results for `Nc1noc2cc(-c3[nH]c([C@@H]4[C@H]5C[C@H]5c5cc(-c6cc(Cl)ccc6-n6cc(Cl)nn6)cc(=O)n54)nc3F)ccc12` [Embodiment 69] were, in that order, 0.36 nM and 0.86 µM.
For `CNc1noc2cc(-c3[nH]c([C@@H]4[C@H]5C[C@H]5c5cc(-c6cc(Cl)ccc6-n6cc(Cl)nn6)cc(=O)n54)nc3F)ccc12` [Embodiment 70] the same measures were 2.16 nM and 1.32 µM.
The like results for `Cn1nc(N)c2ccc(-c3[nH]c([C@@H]4[C@H]5C[C@H]5c5cc(-c6cc(Cl)ccc6-n6cc(Cl)nn6)cc(=O)n54)nc3F)cc21` [Embodiment 75] were, in that order, 5.27 nM and 1.42 µM.
For the molecule `Cn1nc(N)c2ccc(-c3[nH]c([C@@H]4[C@H]5C[C@H]5c5cc(-c6cc(Cl)ccc6-n6cnnn6)cc(=O)n54)nc3F)cc21` [Embodiment 76], the IC50 in data set [1] came to 0.76 nM. In data set [2], the CT2.0 was found to be 0.43 µM.
For `O=C1CCc2cc(-c3[nH]c([C@@H]4[C@H]5C[C@H]5c5cc(-c6cc(Cl)ccc6-n6cc(Cl)nn6)cc(=O)n54)nc3Cl)ccc2N1` [Embodiment 77] the same measures were 3.18 nM and 0.82 µM.
On to `Nc1n[nH]c2cc(-c3[nH]c([C@@H]4[C@H]5C[C@H]5c5cc(-c6cc(Cl)ccc6-n6cc(C(F)(F)F)nn6)cc(=O)n54)nc3F)ccc12` [Embodiment 78], for which the IC50 in data set [1] stood at 1.41 nM. In addition, the CT2.0 in data set [2] is 0.86 µM.
For `Nc1noc2cc(-c3[nH]c([C@@H]4[C@H]5C[C@H]5c5cc(-c6cc(Cl)ccc6-n6cc(C(F)(F)F)nn6)cc(=O)n54)nc3F)ccc12` [Embodiment 79] the same measures were 1.02 nM and 0.72 µM.
For `O=C1CCc2cc(-c3[nH]c([C@@H]4[C@H]5C[C@H]5c5cc(-c6cc(Cl)ccc6-n6cc(C(F)(F)F)nn6)cc(=O)n54)nc3Cl)ccc2N1` [Embodiment 80] the same measures were 6.36 nM and 3.50 µM.
For `O=C1CCc2cc(-c3[nH]c([C@@H]4[C@H]5C[C@H]5c5cc(-c6cc(Cl)ccc6-n6cc(C(F)(F)F)nn6)cc(=O)n54)nc3F)ccc2N1` [Embodiment 81] the same measures were 5.37 nM and 2.28 µM.
Molecule `Nc1n[nH]c2cc(-c3cnc([C@@H]4[C@H]5C[C@H]5c5cc(-c6cc(Cl)ccc6-n6cc(C(F)F)nn6)cc(=O)n54)[nH]3)ccc12` [Embodiment 82] came in with a concentration for half-maximal inhibition (IC50) in data set [1] of 4.84 nM. This molecule also yielded a CT2.0 in data set [2] of 1.04 µM.
For the molecule `Nc1n[nH]c2cc(-c3[nH]c([C@@H]4[C@H]5C[C@H]5c5cc(-c6cc(Cl)ccc6-n6cc(C(F)F)nn6)cc(=O)n54)nc3F)ccc12` [Embodiment 83], inhibition in data set [1] was half-maximal at 0.83 nM (IC50). In data set [2], this molecule displayed a CT2.0 of 0.82 µM.
The molecule `Nc1n[nH]c2c(F)c(-c3cnc([C@@H]4[C@H]5C[C@H]5c5cc(-c6cc(Cl)ccc6-n6cnnn6)cc(=O)n54)[nH]3)ccc12` [Embodiment 86] yielded an IC50 in data set [1] of 0.31 nM. This molecule came in with a CT2.0 in data set [2] of 0.20 µM.
Regarding `O=C1CCc2cc(-c3cnc([C@@H]4[C@H]5C[C@H]5c5nc(-c6cc(Cl)ccc6-n6cc(Cl)nn6)cc(=O)n54)[nH]3)ccc2N1` [Embodiment 89], in data set [1], the IC50 was 12.5 nM. In data set [2], the CT2.0 worked out at 1.29 µM.
`O=C1CCc2c(ccc(-c3cnc([C@@H]4[C@H]5C[C@H]5c5nc(-c6cc(Cl)ccc6-n6cc(Cl)nn6)cc(=O)n54)[nH]3)c2F)N1` [Embodiment 90] yielded an IC50 in data set [1] of 6.33 nM. In addition, the CT2.0 in data set [2] stood at 0.63 µM. The molecule also displayed a F in data set [3] of 28.4%. In data set [3] (setting [4]), this molecule had a total exposure AUC(0-inf) of 17600 ng·h/mL, a Cmax of 1830 ng/mL and a half-life of 3.16 h. Further, in data set [3] (setting [5]), the AUC(0-inf) worked out at 26900 ng·h/mL, the clearance was found to be 0.63 mL/min/kg, the half-life was 3.41 h and the Vd amounted to 0.18 L/kg.
As for `O=C1CCc2c(ccc(-c3cnc([C@@H]4[C@H]5C[C@H]5c5nc(-c6cc(Cl)ccc6-n6cc(Cl)nn6)cc(=O)n54)[nH]3)c2Cl)N1` [Embodiment 91], it took 3.93 nM to reach half-maximal inhibition in data set [1] (IC50). Further, the CT2.0 in data set [2] was 2.27 µM.
As for `O=C1CCc2cc(-c3[nH]c([C@@H]4[C@H]5C[C@H]5c5nc(-c6cc(Cl)ccc6-n6cc(Cl)nn6)cc(=O)n54)nc3F)ccc2N1` [Embodiment 92], the IC50 in data set [1] amounted to 4.24 nM. The molecule further yielded a CT2.0 in data set [2] of 0.83 µM.
